Test results reported in patent publication US11325899B2, “Benzofurane and benzothiophene derivatives as PGE2 receptor modulators” (IDORSIA PHARMACEUTICALS LTD, priority 2017, dated 2022).

What follows are compounds tested against T1, EP2 receptor (Homo sapiens, UniProt P43116) (assay: hEP2 cAMP assay (SF295 glioblastoma cells, HTRF cAMP, PGE2 stimulation)). Settings: antagonistic activity.
T1 construct: SF295 glioblastoma cells express high endogenous EP2 and no EP4; host or cells: SF295 glioblastoma cells
T1 sequence (P43116 whole entry): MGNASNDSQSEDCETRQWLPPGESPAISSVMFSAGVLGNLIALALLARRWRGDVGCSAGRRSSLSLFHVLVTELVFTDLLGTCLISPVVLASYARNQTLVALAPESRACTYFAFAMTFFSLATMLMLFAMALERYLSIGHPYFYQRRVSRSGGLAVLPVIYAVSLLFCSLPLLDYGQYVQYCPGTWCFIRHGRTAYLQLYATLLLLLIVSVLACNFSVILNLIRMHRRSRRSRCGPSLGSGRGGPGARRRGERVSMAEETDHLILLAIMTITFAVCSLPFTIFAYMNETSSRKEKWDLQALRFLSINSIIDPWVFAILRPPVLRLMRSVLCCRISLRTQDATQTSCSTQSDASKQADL
Assay type: cell-based
Protocol: The antagonistic activities of the compounds of formula (I) on the EP2 and EP4 receptors are also determined in accordance with the following experimental method.
Human tumor cell lines expressing endogenously either EP4 or EP2 are used and cAMP accumulation in cells upon PGE2 stimulation is monitored. SF295 glioblastoma cells express high endogenous EP2 and no EP4, whereas BT549 breast cancer cells, express high endogenous EP4 levels and very low EP2 levels.
As a detection method for cAMP the HTRF (homogeneous time resolved fluorescence) Cisbio kit (HTRF cAMP dynamic 2 kit 20′000 tests Cisbio Cat. #62AM4PEC) was used, which is based on a competitive immunoassay using a Cryptate-labeled anti-cAMP antibody and d2-labeled cAMP. Native cAMP produced by cells or unlabeled cAMP (for the standard curve) compete with exogenously added d2-labeled cAMP (acceptor) for binding to monoclonal anti-cAMP-Eu3+ Cryptate (donor). A FRET signal (Fluorescence Resonance Energy Transfer) is obtained only if the labeled anti-cAMP antibody binds the d2 labelled cAMP, thus the specific signal (i.e. energy transfer) is inversely proportional to the concentration of cAMP in the standard or sample.
The SF295 cells (NCI/No. 0503170) are detached from culture dishes with a cell dissociation buffer (Invitrogen, 13151-014), and collected in growing medium (GM: RPM1640 (Invitrogen 21875)/10% FCS, 1% Penicilin/streptomycin). Cells are counted washed and resuspended in assay buffer (AB; HBSS, 20 mM HEPES, 0.2% BSA; 2 mM IBMX). 4′000 cells in 5 μl of AB are seeded per well of a small volume 384 well plate (black with flat bottom, Greiner 784076).
Stock solutions of test compounds are made at a concentration of 10 mM in DMSO, and serially diluted in DMSO to concentrations required for inhibition dose response curves (tested concentration range 30 μM-0.4 nM; 30 μM-0.015 nM or 1 μM-0.01 nM).
PGE2 (Cayman 14010, stock solution: 75 μM in DMSO) is used as agonist at 75 nM final concentration, corresponding to EC80.
Two point five microliters of diluted compounds are transferred into the assay plate. Plate is pre-incubated 45 minutes at room temperature. Subsequently, 2.5 microliters of PGE2 (final conc. 75 nM) are transferred into the assay plate. Plate is incubated 30 minutes at room temperature. Five μl of each donor (anti-cAMP cryptate) and acceptor (cAMP-d2) are added and the plate is incubated another hour at room temperature in the dark and then read using a BMG LABTECH PHERAstar reader (Excitation: 337 nm, Emission: 620 and 665 nm).
The obtained Delta F (fluorescence) values (665 nm/620 nM) are converted into % cAMP values using the measurements of the cAMP calibrator provided in the kit. For each compound concentration the percentage of cAMP compared to DMSO control value as average±STDEV (each concentration is measured in duplicate) is calculated.
IC50 values and curves are generated with XLfit software (IDBS) using Dose-Response One Site model 203. When compounds were measured multiple times, mean values are given.
With `CCOc1cc(-c2cc(NCCc3c(C)sc4c(C)cccc34)ncn2)ccc1C(C)C(=O)O` (racemic) [Example 126, rac-2-(4-{6-[2-(2,7-Dimethyl-benzo[b]thiophen-3-yl)-ethylamino]-pyrimidin-4-yl}-2-ethoxy-phenyl)-propionic acid] the IC50 was 233 nM.
`COc1ccc(Cl)c2c(CCNc3cc(-c4cc(C)c(C(=O)O)s4)ncn3)c(C)sc12` [Example 5, 5-{6-[2-(4-Chloro-7-methoxy-2-methyl-benzo[b]thiophen-3-yl)-ethylamino]-pyrimidin-4-yl}-3-methyl-thiophene-2-carboxylic acid] was tested, and the IC50 was 177 nM.
`Cc1cc(-c2cc(NCCc3c(C)oc4ccccc34)ncn2)sc1C(=O)O` [Example 6, 3-Methyl-5-{6-[2-(2-methyl-benzofuran-3-yl)-ethylamino]-pyrimidin-4-yl}-thiophene-2-carboxylic acid] gave an IC50 of 4 nM.
Work on `CCc1oc2c(C)cc(F)cc2c1CCNc1cc(-c2cc(C)c(C(=O)O)s2)ncn1` [Example 7, 5-{6-[2-(2-Ethyl-5-fluoro-7-methyl-benzofuran-3-yl)-ethylamino]-pyrimidin-4-yl}-3-methyl-thiophene-2-carboxylic acid] yielded an IC50 of 198 nM.
In the case of `Cc1sc2c(C)cccc2c1CCNc1cc(-c2ccc(C(=O)O)cc2)ncn1` [Example 8, 4-{6-[2-(2,7-Dimethyl-benzo[b]thiophen-3-yl)-ethylamino]-pyrimidin-4-yl}-benzoic acid], the IC50 is reported as 8 nM.
`COc1ccc(Cl)c2c(CCNc3cc(-c4ccc(C(=O)O)c(O)c4)ncn3)c(C)sc12` [Example 9, 4-{6-[2-(4-Chloro-7-methoxy-2-methyl-benzo[b]thiophen-3-yl)-ethylamino]-pyrimidin-4-yl}-2-hydroxy-benzoic acid] gave an IC50 of 44 nM.
In the case of `Cc1sc2c(C)cc(F)cc2c1CCNc1cc(-c2ccc(C(=O)O)c(O)c2)ncn1` [Example 10, 4-{6-[2-(5-Fluoro-2,7-dimethyl-benzo[b]thiophen-3-yl)-ethylamino]-pyrimidin-4-yl}-2-hydroxy-benzoic acid], the IC50 is reported as 32 nM.
In the case of `CSc1cc(-c2cc(NCCc3c(C#N)sc4c(C)cc(F)cc34)ncn2)ccc1C(=O)O` [Example 12, 4-{6-[2-(2-Cyano-5-fluoro-7-methyl-benzo[b]thiophen-3-yl)-ethylamino]-pyrimidin-4-yl}-2-methylsulfanyl-benzoic acid], the IC50 is reported as 4 nM.
`COc1cccc2c(CCNc3cc(-c4ccc(C(=O)O)c(SC)c4)ncn3)c(C#N)sc12` [Example 13, 4-{6-[2-(2-Cyano-7-methoxy-benzo[b]thiophen-3-yl)-ethylamino]-pyrimidin-4-yl}-2-methylsulfanyl-benzoic acid] was tested, and the IC50 was 32 nM.
Compound `CCOc1cc(-c2cc(NCCc3c(C)sc4c(C)cc(F)cc34)ncn2)sc1/C=C/C(=O)O` [Example 96, (E)-3-(3-Ethoxy-5-{6-[2-(5-fluoro-2,7-dimethyl-benzo[b]thiophen-3-yl)-ethylamino]-pyrimidin-4-yl}-thiophen-2-yl)-acrylic acid] has an IC50 of 121 nM.
In the case of `CCOc1cc(-c2cc(NCCc3c(C)sc4c(C)cc(F)cc34)ncn2)sc1CCC(=O)O` [Example 97, 3-(3-Ethoxy-5-{6-[2-(5-fluoro-2,7-dimethyl-benzo[b]thiophen-3-yl)-ethylamino]-pyrimidin-4-yl}-thiophen-2-yl)-propionic acid], the IC50 is reported as 120 nM.
In the case of `COc1ccc(Cl)c2c(CCNc3cc(-c4ccc(C(=O)O)c(OC(C)C)c4)ncn3)c(C)sc12` [Example 98, 4-{6-[2-(4-Chloro-7-methoxy-2-methyl-benzo[b]thiophen-3-yl)-ethylamino]-pyrimidin-4-yl}-2-isopropoxy-benzoic acid], the IC50 is reported as 53 nM.
In the case of `CCCOc1cc(-c2cc(NCCc3c(C)sc4c(C)c(F)ccc34)ncn2)ccc1C(=O)O` [Example 99, 4-{6-[2-(6-Fluoro-2,7-dimethyl-benzo[b]thiophen-3-yl)-ethylamino]-pyrimidin-4-yl}-2-propoxy-benzoic acid], the IC50 is reported as 30 nM.
